This note sets out measurements from PMC8368026, “Theaflavin binds to a druggable pocket of TMEM16A channel and inhibits lung adenocarcinoma cell viability” (The Journal of Biological Chemistry, 2021).

Numbering of substitutions follows the chain as printed.

Common to all, as to type: cell-based
In experiment [1] the target is T1, TMEM16A (Mus musculus, UniProt Q8BHY3).
T1 construct: gene Ano1; mouse TMEM16A (NM_178642.5)
T1 sequence (Q8BHY3 1-960): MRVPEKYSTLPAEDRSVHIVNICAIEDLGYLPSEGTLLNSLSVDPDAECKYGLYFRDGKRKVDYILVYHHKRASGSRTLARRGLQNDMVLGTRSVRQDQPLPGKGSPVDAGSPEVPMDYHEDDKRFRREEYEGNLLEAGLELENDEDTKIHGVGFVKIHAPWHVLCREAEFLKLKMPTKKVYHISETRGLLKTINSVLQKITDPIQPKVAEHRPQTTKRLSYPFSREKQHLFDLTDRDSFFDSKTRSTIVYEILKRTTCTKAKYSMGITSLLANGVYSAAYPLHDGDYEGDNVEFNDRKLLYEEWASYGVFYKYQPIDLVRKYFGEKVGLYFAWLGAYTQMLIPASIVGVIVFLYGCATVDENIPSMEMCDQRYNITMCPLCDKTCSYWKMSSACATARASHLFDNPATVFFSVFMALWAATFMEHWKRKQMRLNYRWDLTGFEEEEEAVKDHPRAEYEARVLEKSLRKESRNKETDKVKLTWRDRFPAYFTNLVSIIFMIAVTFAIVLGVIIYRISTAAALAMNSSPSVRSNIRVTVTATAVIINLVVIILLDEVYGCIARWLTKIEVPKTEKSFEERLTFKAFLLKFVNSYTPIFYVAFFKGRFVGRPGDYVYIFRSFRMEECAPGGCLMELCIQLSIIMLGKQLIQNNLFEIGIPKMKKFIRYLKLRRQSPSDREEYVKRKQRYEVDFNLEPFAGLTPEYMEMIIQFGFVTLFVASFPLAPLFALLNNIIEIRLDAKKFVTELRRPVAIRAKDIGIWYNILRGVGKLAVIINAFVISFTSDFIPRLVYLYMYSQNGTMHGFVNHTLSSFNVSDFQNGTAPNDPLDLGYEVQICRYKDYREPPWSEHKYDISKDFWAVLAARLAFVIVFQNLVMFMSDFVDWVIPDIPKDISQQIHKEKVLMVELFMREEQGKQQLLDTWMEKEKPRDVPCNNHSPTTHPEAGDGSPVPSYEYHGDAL
The experiment in a line: whole-cell patch clamp, recombinant channel in HEK293T cells; supported by mutagenesis. (In general: In patch-clamp work, channel activity is measured electrically.)

Experiment [2] concerns the target T2, TMEM16A (Mus musculus, UniProt Q8BHY3, R535A).
T2 construct: gene Ano1; mouse TMEM16A (NM_178642.5)
T2 sequence (Q8BHY3 1-960 R535A): T1 sequence (Q8BHY3 1-960) with R535A
In words: whole-cell patch clamp of mutant channel in HEK293T cells, […] TF. The conditions noted are these: HEK-293T.

In experiment [3] the target is T3, TMEM16A (Mus musculus, UniProt Q8BHY3, T539A).
T3 construct: gene Ano1; mouse TMEM16A (NM_178642.5)
T3 sequence (Q8BHY3 1-960 T539A): T1 sequence (Q8BHY3 1-960) with T539A
The description is as above. The conditions noted are these: HEK-293T.

Experiment [4] addresses T4, TMEM16A (Mus musculus, UniProt Q8BHY3, K603A).
T4 construct: gene Ano1; mouse TMEM16A (NM_178642.5)
T4 sequence (Q8BHY3 1-960 K603A): T1 sequence (Q8BHY3 1-960) with K603A
Described as above. The conditions noted are these: HEK-293T.

A word on the IC50: it is the concentration needed to halve the response being measured. For orientation: inhibition means the percentage by which the read-out fell short of the control. Read a low inhibition as a response near the control. For the compound `O=c1c(O)cc([C@H]2Oc3cc(O)cc(O)c3C[C@H]2O)cc2c([C@H]3Oc4cc(O)cc(O)c4C[C@H]3O)cc(O)c(O)c12` [TF, theaflavin], the half-maximal inhibitory concentration (IC50) in experiment [1] is 750 ± 130 nM. The inhibition at 10 µM was 71% in experiment [2], 51% in experiment [3] and 54% in experiment [4].
